Data on four compounds can be found in article PMC8000448, “Inhibitory Effects of Schisandra Lignans on Cytochrome P450s and Uridine 5′-Diphospho-Glucuronosyl Transferases in Human Liver Microsomes” (Pharmaceutics, 2021).

As a reminder, the IC50 is the concentration that gives 50% inhibition.

The test system of data set [1] is CYP2C19. Set-up: method as in PMID 15342469. The settings on record: cited from earlier work.
Another data set addresses six UGT enzymes. In words: UGT inhibition in HLMs, summary statements over several isoforms. It counts as in vitro ADME, human. The conditions noted are these: UGTs other than UGT1A1 and UGT1A3. As to the method:
(§1) The inhibitory potential of six lignans on six UGT activities was evaluated using the previously developed cocktail method with slight modifications. […] These substrates are known to be selective for each UGT isoforms.

The target in a further data set is T1, UGT1A1 (Homo sapiens, UniProt P22309).
T1 construct: pooled HLMs (0.25 mg/mL); tissue XenoTech H2630; host or cells: pooled human liver microsomes, mixed gender
T1 sequence (P22309 26-533): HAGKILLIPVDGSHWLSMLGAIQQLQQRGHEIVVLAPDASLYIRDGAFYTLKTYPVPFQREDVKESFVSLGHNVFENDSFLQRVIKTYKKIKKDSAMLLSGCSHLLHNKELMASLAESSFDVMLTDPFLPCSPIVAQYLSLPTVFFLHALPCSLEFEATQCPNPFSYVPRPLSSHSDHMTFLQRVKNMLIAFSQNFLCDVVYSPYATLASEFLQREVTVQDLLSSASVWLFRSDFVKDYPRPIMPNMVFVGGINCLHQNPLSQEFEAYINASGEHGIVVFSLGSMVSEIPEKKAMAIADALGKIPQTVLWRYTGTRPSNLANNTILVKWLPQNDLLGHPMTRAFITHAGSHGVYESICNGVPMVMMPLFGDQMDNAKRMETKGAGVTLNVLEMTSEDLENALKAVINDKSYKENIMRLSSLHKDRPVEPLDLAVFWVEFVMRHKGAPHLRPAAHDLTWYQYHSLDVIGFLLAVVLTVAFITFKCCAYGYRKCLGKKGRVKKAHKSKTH
Kind of data set: UGT1A1 inhibition in HLMs (SN-38). It counts as in vitro ADME. The conditions noted are these: average in triplicate, read-out: IC50, UGT 1A1. As to the method:
as §1

Data set [2] has as its system CYP2C9. Further details: method as in PMID 15342469. The conditions noted are these: cited from earlier work.
Data set [3] has as its system recombinant CYP3A4. The conditions noted are these: recombinant CYP3A4 isoform; read-out: IC50, CYP3A-mediated midazolam 1′-hydroxylation; cited from earlier work.
The next data set deals with CYP3A4. The conditions noted are these: in the presence of the inhibitor; cited from earlier work.
In the next data set the test system is CYP2D6. Further details: method as in PMID 15342469. The conditions noted are these: cited from earlier work.
The subject of data set [4] is UGT1A3. Further details: method as in PMID 23339253. The conditions noted are these: cited from earlier work.
For a further data set, the system named is CYP1A2. Further details: method as in PMID 15342469. The settings on record: cited from earlier work.
Data set [5] deals with CYP3A (Homo sapiens, UniProt P08684). Kind of data set: CYP3A inhibition in HLMs (midazolam, nifedipine, testosterone).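 On all read-outs here: pooled HLMs at 0.25 mg/mL in phosphate buffer, inhibitor across 0–50 µM, 10 min reaction at 37 °C after preincubation, probe metabolite quantified by LC-MS/MS, triplicate incubations.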 The settings on record: pooled human liver microsomes; for IC50 at 10 min: HLMs. A general note: Liver microsomes are a subcellular fraction often used to study metabolism.
Description: (§3) Lignans were first dissolved in methanol. The final organic solvent concentration in the incubation media was ≤1.0% (v/v). The microsomal incubation was conducted using two cocktail sets containing non-interactive substrates: set A containing phenacetin, bupropion, amodiaquine, diclofenac, S-mephenytoin, and dextromethorphan as substrates for CYP1A2, CYP2B6, CYP2C8, CYP2C9, CYP2C19, and CYP2D6, respectively; and set B containing coumarin and chlorzoxazone as substrates for CYP2A6 and CYP2E1, and midazolam, nifedipine, and testosterone as substrates for CYP3A4 (Table 1). These substrates are known to be selective for each P450 isoforms. Incubation mixtures containing potassium phosphate buffer (0.1 M, pH 7.4), pooled HLMs (0.25 mg/mL), P450 probe substrate cocktails, and lignan (0~50 μM) were pre-incubated at 37 °C (5 min). Following pre-incubation, an NADPH generating system (1.3 mM NADP^+, 3.3 mM G6P, 1 unit/mL G6PDH, and 3.3 mM MgCl2) was added to initiate the reaction, and further incubated for 10 min. The reaction was quenched with 50 μL of cold acetonitrile containing internal standard (IS; 7 nM trimipramine). After centrifugation at 14,000 rpm (5 min at 4 °C), aliquots of supernatants were filtered through a 0.2 μm membrane filter and were measured by liquid chromatography-tandem mass spectrometry (LC-MS/MS). All microsomal incubations were performed in triplicate.
For data set [6], the target named is T2, UGT1A3 (Homo sapiens, UniProt P35503).
T2 construct: pooled HLMs (0.25 mg/mL); tissue XenoTech H2630; host or cells: pooled human liver microsomes, mixed gender
T2 sequence (P35503 29-534): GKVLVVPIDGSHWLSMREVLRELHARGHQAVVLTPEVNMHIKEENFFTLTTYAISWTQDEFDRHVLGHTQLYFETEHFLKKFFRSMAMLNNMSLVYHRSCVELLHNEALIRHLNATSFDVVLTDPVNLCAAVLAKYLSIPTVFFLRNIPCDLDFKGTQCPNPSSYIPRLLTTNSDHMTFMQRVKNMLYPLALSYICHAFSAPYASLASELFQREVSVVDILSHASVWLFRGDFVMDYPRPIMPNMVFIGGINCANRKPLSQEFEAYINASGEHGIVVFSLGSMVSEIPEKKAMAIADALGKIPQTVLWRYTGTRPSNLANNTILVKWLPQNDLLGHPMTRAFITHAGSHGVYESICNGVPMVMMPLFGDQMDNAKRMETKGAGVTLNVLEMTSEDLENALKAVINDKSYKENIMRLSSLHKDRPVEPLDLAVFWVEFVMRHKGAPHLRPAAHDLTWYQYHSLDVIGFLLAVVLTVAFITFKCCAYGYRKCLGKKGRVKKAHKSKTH
Kind of data set: UGT1A3 inhibition in HLMs (chenodeoxycholic acid). The format is in vitro ADME. The conditions noted are these: average in triplicate, read-out: IC50, UGT 1A3. Here is the method: as §1

A further data set addresses T3, CYP2E1 (Homo sapiens, UniProt P05181).
T3 construct: pooled HLMs (0.25 mg/mL); tissue XenoTech H2630; host or cells: pooled human liver microsomes, mixed gender
Kind of data set: CYP2E1 inhibition in HLMs (chlorzoxazone). It counts as in vitro ADME. As to the method: (§2) Lignans were first dissolved in methanol. […] All microsomal incubations were performed in triplicate.

Data set [7] relates to CYP3A. Set-up: method as in PMID 15342469. The conditions noted are these: read-out: IC50, CYP3A-mediated testosterone hydroxylase activity; cited from earlier work.
Data set [8] addresses CYP2C9 (Homo sapiens, UniProt P11712). Kind of data set: in vitro. The conditions noted are these: microsomes, pH 7.4, IC50 Shift.
Description: as §3
Data set [9] has as its system CYP3A. Further details: method as in PMID 20448858. The settings on record: read-out: IC50, CYP3A-mediated midazolam hydroxylation; cited from earlier work.
The target in data set [10] is CYP2C19 (Homo sapiens, UniProt P33261). Kind of data set: in vitro. The settings on record: microsomes, pH 7.4, IC50 Shift.
Description: as §3
Data set [11] concerns CYP3A. The settings on record: rats; cited from earlier work.
The test system of data set [12] is P450s other than CYP1A2, CYP2B6, CYP2C19, CYP2E1 and CYP3A (range over several isoforms). Kind of data set: P450 inhibition in HLMs, summary statements over several isoforms. It counts as in vitro ADME, human. The settings on record: human, pooled human liver microsomes, pH 7.4, probe P450 probe substrate cocktails (sets A and B); HLMs; reversible inhibition; P450s other than CYP1A2, CYP2B6, CYP2C19, CYP2E1 and CYP3A. As to the method: as §2

The subject of a further data set is nine P450 enzymes. The data set is described as above. The format is in vitro ADME, human. The conditions noted are these: HLMs pre-incubated in the presence of NADPH. As to the method:
as §2

Data set [13] has as its system recombinant CYP3A4. The settings on record: rCYP3A4, fluorescent substrate; cited from earlier work.
[14] abbreviates: pH 7.4, IC50, CYP3A activity (across probe substrates), reversible inhibition, probe substrate not singled out.
Where [15] appears, read: pH 7.4, probe midazolam (cocktail set B), IC50 RI, CYP3A (midazolam), midazolam, reversible inhibition.
[16] abbreviates: pH 7.4, probe midazolam (cocktail set B), IC50 TDI, CYP3A (midazolam), midazolam, 30 min pre-incubation with NADPH generating system.
The mark [17] stands for this setting: pH 7.4, probe nifedipine (cocktail set B), IC50 RI, CYP3A (nifedipine), nifedipine, reversible inhibition.
Where [18] appears, read: pH 7.4, probe nifedipine (cocktail set B), IC50 TDI, CYP3A (nifedipine), nifedipine, 30 min pre-incubation with NADPH generating system.
The mark [19] stands for this setting: pH 7.4, probe testosterone (cocktail set B), IC50 RI, CYP3A (testosterone), testosterone, reversible inhibition.
[20] abbreviates: pH 7.4, probe testosterone (cocktail set B), IC50 TDI, CYP3A (testosterone), testosterone, 30 min pre-incubation with NADPH generating system.
Setting [21] is: 30 min pre-incubation with NADPH generating system, read-out: IC50 TDI, CYP2E1.
Where [22] appears, read: reversible inhibition, read-out: IC50 RI, CYP2E1.

Molecules are shown by their SMILES. Where two headings read alike, the source gives them in different places.

Sequence of CYP3A (Homo sapiens, UniProt P08684) (P08684 2-503): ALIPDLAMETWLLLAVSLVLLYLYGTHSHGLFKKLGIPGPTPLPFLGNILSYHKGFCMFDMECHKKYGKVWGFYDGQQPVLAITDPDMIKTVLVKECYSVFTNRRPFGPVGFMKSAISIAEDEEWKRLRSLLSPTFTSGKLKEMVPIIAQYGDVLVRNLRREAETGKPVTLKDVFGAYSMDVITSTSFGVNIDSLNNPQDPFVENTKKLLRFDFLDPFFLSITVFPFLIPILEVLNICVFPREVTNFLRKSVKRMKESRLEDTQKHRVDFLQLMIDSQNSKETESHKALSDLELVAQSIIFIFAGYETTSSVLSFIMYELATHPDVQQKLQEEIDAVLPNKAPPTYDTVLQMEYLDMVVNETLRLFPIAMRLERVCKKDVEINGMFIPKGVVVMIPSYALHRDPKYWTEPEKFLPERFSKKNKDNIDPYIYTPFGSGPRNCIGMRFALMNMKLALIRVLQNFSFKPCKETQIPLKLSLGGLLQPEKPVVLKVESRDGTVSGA
T3 sequence (P05181 whole entry): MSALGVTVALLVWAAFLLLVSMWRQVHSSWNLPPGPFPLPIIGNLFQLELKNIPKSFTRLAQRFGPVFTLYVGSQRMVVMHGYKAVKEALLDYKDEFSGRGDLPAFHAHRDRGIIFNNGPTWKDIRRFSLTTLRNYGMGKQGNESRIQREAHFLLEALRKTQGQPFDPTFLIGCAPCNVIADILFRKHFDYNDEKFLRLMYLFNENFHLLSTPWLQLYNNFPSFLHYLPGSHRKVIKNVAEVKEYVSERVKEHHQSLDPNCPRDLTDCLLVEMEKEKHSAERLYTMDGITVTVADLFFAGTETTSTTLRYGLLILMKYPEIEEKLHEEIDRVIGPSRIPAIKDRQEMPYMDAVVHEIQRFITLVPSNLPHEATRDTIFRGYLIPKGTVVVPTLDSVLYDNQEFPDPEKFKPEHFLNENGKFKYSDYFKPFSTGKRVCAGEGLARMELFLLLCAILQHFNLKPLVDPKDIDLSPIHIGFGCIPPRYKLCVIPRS
Sequence of CYP2C9 (Homo sapiens, UniProt P11712) (P11712 whole entry): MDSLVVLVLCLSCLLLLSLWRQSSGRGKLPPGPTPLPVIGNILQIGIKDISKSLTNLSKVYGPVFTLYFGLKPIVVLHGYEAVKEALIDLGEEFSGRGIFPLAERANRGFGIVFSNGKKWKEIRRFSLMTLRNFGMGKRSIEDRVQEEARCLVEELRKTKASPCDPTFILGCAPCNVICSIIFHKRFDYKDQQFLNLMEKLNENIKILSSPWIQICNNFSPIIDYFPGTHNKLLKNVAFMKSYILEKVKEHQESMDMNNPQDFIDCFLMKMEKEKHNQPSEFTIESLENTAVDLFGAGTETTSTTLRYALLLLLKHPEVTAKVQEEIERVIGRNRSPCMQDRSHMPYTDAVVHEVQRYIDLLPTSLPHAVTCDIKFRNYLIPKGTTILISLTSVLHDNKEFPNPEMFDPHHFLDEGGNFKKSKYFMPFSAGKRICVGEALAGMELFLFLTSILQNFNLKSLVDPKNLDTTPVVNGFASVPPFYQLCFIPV
Sequence of CYP2C19 (Homo sapiens, UniProt P33261) (P33261 whole entry): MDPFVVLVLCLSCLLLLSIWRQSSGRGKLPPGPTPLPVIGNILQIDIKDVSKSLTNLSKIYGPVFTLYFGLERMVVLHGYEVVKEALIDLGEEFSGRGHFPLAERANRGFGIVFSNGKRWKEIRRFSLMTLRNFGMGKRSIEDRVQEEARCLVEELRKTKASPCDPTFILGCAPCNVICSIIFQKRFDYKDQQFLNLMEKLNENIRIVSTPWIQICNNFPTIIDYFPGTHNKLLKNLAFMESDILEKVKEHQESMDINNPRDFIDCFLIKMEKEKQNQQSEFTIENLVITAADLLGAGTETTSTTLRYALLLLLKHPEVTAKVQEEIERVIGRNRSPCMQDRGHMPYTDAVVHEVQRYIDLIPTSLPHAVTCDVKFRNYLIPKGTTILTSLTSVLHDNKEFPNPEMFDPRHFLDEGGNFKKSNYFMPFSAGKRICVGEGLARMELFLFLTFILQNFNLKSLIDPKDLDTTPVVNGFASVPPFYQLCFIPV

Take `COc1cc2c(c(OC)c1OC)-c1c(cc3c(c1OC)OCO3)C[C@H](C)[C@](C)(O)[C@H]2OC(=O)c1ccccc1` [Gomisin C, gomisin C]: the IC50 in the data set on CYP2C19 [1] was > 10 µM; against six UGT enzymes, > 50 µM; on UGT1A1, 24 µM; in the data set on CYP2C9 [2], > 10 µM; in the data set with recombinant CYP3A4 [3], 0.059 µM; in the data set with CYP2D6, > 10 µM. Moreover, the IC50 in the data set on UGT1A3 [4] was 12.5 µM; with CYP1A2, > 10 µM; at UGT1A3 [6], 15 µM; on CYP2E1 (setting [21]), 24.4 µM; on CYP2E1 (setting [22]), > 50 µM; in the data set with CYP3A [7], 0.26 to 0.62 µM. Further, in the data set on CYP3A4, the “Estimated increase of AUC of drugs predominantly biotransformed by CYP3A4” value is recorded as 22–321%. In addition, the IC50 at 10 min on CYP3A [5] (setting [14]) was 0.19 to 0.3 µM; at CYP3A [5] (setting [15]), 0.3 µM; against CYP3A [5] (setting [16]), 0.1 µM; on CYP3A [5] (setting [17]), 0.26 µM; against CYP3A [5] (setting [18]) it was 0.09 µM; on CYP3A [5] (setting [19]) it was 0.19 to 0.28 µM. The IC50 at 10 min against CYP3A [5] (setting [20]) amounted to 0.09 µM.

For the compound `COc1cc2c(c(OC)c1OC)-c1c(cc3c(c1OC)OCO3)C[C@H](C)[C@H](C)C2` [Gomisin N, gomisin N], the IC50 shift at 10 min is > 1.8 on CYP2C9 [8]; 2.7 at CYP3A [5] (pH 7.4, probe midazolam (cocktail set B)); 2.4 at CYP3A [5] (pH 7.4, probe nifedipine (cocktail set B)); 2.4 on CYP3A [5] (pH 7.4, probe testosterone (cocktail set B)); > 1.8 at CYP2C19 [10]; > 2.1 on CYP2E1 (human, pooled human liver microsomes, pH 7.4, probe chlorzoxazone (cocktail set B), RI/TDI fold shift). Besides, the IC50 with CYP2C19 [1] was > 10 µM; at UGT1A1, > 50 µM; with CYP2C9 [2] it was > 10 µM; in the data set on CYP3A [9], 5.5 µM; in the data set with CYP2D6, > 10 µM; with CYP1A2 it was > 10 µM. Also, the IC50 was 26.9 µM on UGT1A3 [6], 23.6 µM on CYP2E1 (setting [21]) and > 50 µM on CYP2E1 (setting [22]). Also, the IC50 at 10 min on CYP3A [5] (setting [14]) was 1.3 to 4.5 µM; on CYP3A [5] (setting [15]) it was 4.5 µM; against CYP3A [5] (setting [16]), 1.7 µM; against CYP3A [5] (setting [17]) it was 1.4 µM; against CYP3A [5] (setting [18]), 0.61 µM; against CYP3A [5] (setting [19]), 1.3 µM. Besides, it took 0.55 µM to reach half-maximal inhibition on CYP3A [5] (setting [20]) (IC50 at 10 min). In the data set with CYP3A [11], the “Oral bioavailability of drugs metabolized by CYP3A, including midazolam” value was “increase”.

In the case of `COc1cc2c(c(OC)c1OC)-c1c(cc(OC)c(OC)c1OC)C[C@](C)(O)[C@@H](C)C2` [Schisandrin, schisandrin], the IC50 is > 50 µM on UGT1A1; > 50 µM at UGT1A3 [6]; 36 µM on CYP2E1 (setting [21]); 4.2 µM at CYP2E1 (setting [22]); 32 µM in the data set with recombinant CYP3A4 [13]. Besides, the IC50 at 10 min is 22 to 43 µM in [12]; ≤ 16 µM at CYP3A [5] (setting [14]); 10.5 µM on CYP3A [5] (setting [15]); 35 µM against CYP3A [5] (setting [16]); 16 µM at CYP3A [5] (setting [17]); 43.3 µM against CYP3A [5] (setting [18]). In addition, the IC50 at 10 min worked out at 5.8 µM at CYP3A [5] (setting [19]) and 20.6 µM against CYP3A [5] (setting [20]). Further, the “Inhibitory potential against nine P450s after pre-incubation with NADPH compared to untreated HLMs” value with nine P450 enzymes is “did not increase”.

For the compound `COc1c2c(cc3c1-c1c(cc4c(c1OC)OCO4)C[C@H](C)[C@H](C)C3)OCO2` [Wuweizisu C, wuweizisu C], the IC50 on UGT1A1 is > 50 µM; at UGT1A3 [6] it was > 50 µM; at CYP2E1 (setting [21]) it was 25.2 µM; at CYP2E1 (setting [22]), > 50 µM. Also, the IC50 at 10 min against CYP3A [5] (setting [15]) came to 25.9 µM; against CYP3A [5] (setting [16]), 2.5 µM; against CYP3A [5] (setting [17]), 5.6 µM; at CYP3A [5] (setting [19]) it was 3.6 µM.
